Assay results from patent US8247211B2, “Glycopeptide antibiotics” (American Cyanamid Company, priority 2001, dated 2012).

How the values were obtained:
Test in all cases: In vitro antibacterial evaluation: minimum inhibitory concentration (MIC), broth dilution method
Assay type in all cases: cell-based
[1] = system: Enterococcus sp.; details: 18 hours at 35° C.
Description: (§1) The minimum inhibitory concentration (MIC), the lowest concentration of the antibiotic which inhibits growth of the test organism, is determined by the broth dilution method using Muller-Hinton II […] (Baltimore Biological Laboratories) following the recommendations of the National Committee for Clinical Laboratory Standards [Methods for dilution antimicrobial susceptibility tests for bacteria that grow aerobically, approved standard M7-A2, National Committee for Clinical Laboratory Standards, Villanova, Pa].
(§2) An inoculum level of 5×10^5 CFU/mL, and a range of antibiotic concentrations (64-0.06 μg/mL) is used. […] The test organisms include a spectrum of Gram-positive bacteria comprised of Staphylococcus sp., Streptococcus sp. and Enterococcus sp. These organisms include recent clinical isolates that are resistant to methicillin, penicillin and/or vancomycin.

[2] = system: Staphylococcus sp.
Description: as §1, §2

[3] = system: Streptococcus sp.; details: 18 hours at 35° C.
Description: as §1, §2

[4] = system: Escherichia coli; details: Escherichia coli (GC 4560); 18 hours at 35° C.
Description: as §1, §2

[5] = broth dilution, inoculum 5×10^5 CFU/mL

CC(c1ccccc1)C1NC(=O)CNC(=O)C(CO)NC(=O)C(C(O)C2CNC(=N)N2C2OC(CO)C(O)C(O)C2O)NC(=O)C(C(O)C2CNC(=N)N2)NC(=O)C(Cc2ccc(OC3OC(CO)C(OC4OC5COC(c6ccc(C(=O)c7cc(I)c(I)c(I)c7)cc6)OC5C(O)C4O)C(O)C3O)cc2)NC1=O (stereo not shown) [Example 187]
32 µg/mL: MIC Enterococcus faecalis (GC 4553) ([1]; Enterococcus faecalis (GC 4553)) | MIC Enterococcus faecalis (GC 4553) [1, 5] | MIC Staphylococcus aureus (GC 3053) ([2]; strain GC 3053) | MIC Coagulase Negative Staphylococcus (GC 4551) ([2]; strain GC 4551) | MIC Coagulase Negative Staphylococcus (GC 6257) ([2]; strain GC 6257)
<0.12 µg/mL: MIC Streptococcus agalactiae (GC 4564) ([3]; Streptococcus agalactiae (GC 4564)) | MIC Streptococcus pneumoniae (ATCC 6301) ([3]; Streptococcus pneumoniae (ATCC 6301)) | MIC Streptococcus pneumoniae (GC 1894) ([3]; Streptococcus pneumoniae (GC 1894)) | MIC Streptococcus pneumoniae (GC 4565) ([3]; Streptococcus pneumoniae (GC 4565)) | MIC Streptococcus agalactiae (GC 4564) [3, 5] | MIC Streptococcus pneumoniae (ATCC 6301) [3, 5] | MIC Streptococcus pneumoniae (GC 1894) [3, 5] | MIC Streptococcus pneumoniae (GC 4565) [3, 5]
0.5 µg/mL: MIC Streptococcus pyogenes (GC 4563) ([3]; Streptococcus pyogenes (GC 4563)) | MIC Streptococcus pyogenes (GC 4563) [3, 5]
64 µg/mL: MIC Enterococcus faecalis (ATCC 29212) ([1]; Enterococcus faecalis (ATCC 29212)) | MIC Enterococcus faecalis (GC 2242) ([1]; Enterococcus faecalis (GC 2242)) | MIC Enterococcus faecalis (GC 4552) ([1]; Enterococcus faecalis (GC 4552)) | MIC Enterococcus faecalis (GC 4554) ([1]; Enterococcus faecalis (GC 4554)) | MIC Enterococcus faecalis (ATCC 29212) [1, 5] | MIC Enterococcus faecalis (GC 2242) [1, 5] | MIC Enterococcus faecalis (GC 4552) [1, 5] | MIC Enterococcus faecalis (GC 4554) [1, 5] | MIC Staphylococcus aureus (ATCC 29213) ([2]; strain ATCC 29213) | MIC Staphylococcus aureus (GC 1131) ([2]; strain GC 1131) | MIC Staphylococcus aureus (GC 3051) ([2]; strain GC 3051) | MIC Staphylococcus aureus (GC 4541) ([2]; strain GC 4541) | MIC Staphylococcus aureus (GC 4542) ([2]; strain GC 4542) | MIC Staphylococcus aureus-SMITH (GC 4543) ([2]; strain GC 4543) | MIC Staphylococcus aureus (GC 4544) ([2]; strain GC 4544) | MIC Staphylococcus aureus (GC 4545) ([2]; strain GC 4545) | MIC Coagulase Negative Staphylococcus (GC 4549) ([2]; strain GC 4549)
16 µg/mL: MIC Enterococcus avium (GC 4558) ([1]; Enterococcus avium (GC 4558)) | MIC Enterococcus faecalis (GC 2691) ([1]; Enterococcus faecalis (GC 2691)) | MIC Enterococcus faecalis (GC 6189) ([1]; Enterococcus faecalis (GC 6189)) | MIC Enterococcus faecium (GC 2243) ([1]; Enterococcus faecium (GC 2243)) | MIC Enterococcus faecium (GC 4557) ([1]; Enterococcus faecium (GC 4557)) | MIC Enterococcus avium (GC 4558) [1, 5] | MIC Enterococcus faecalis (GC 2691) [1, 5] | MIC Enterococcus faecalis (GC 6189) [1, 5] | MIC Enterococcus faecium (GC 2243) [1, 5] | MIC Enterococcus faecium (GC 4557) [1, 5] | MIC Coagulase Negative Staphylococcus (GC 4548) ([2]; strain GC 4548)

CC(c1ccccc1)C1NC(=O)CNC(=O)C(CO)NC(=O)C(C(O)C2CNC(=N)N2C2OC(CO)C(O)C3OC(C)(C)OC32)NC(=O)C(C(O)C2CNC(=N)N2)NC(=O)C(Cc2ccc(OC3OC(CO)C(OC4OC5COC(C)(C)OC5C5OC(C)(C)OC45)C4OC(C)(C)OC34)cc2)NC1=O (stereo not drawn) [Example 229b, Cyclo[glycyl-β-methylphenylalanyl-O-[2,3-O-isopropylidene-4-O-(2,3:4,6-di-O-isopropylidene-hexopyranosyl)hexopyranosyl]tyrosyl-3-(2-iminoimidazolidin-4-yl)seryl-3-[2-imino-(2,3-O-isopropylidenehexopyranosyl)imidazolidin-4-yl]serylseryl]]
64 µg/mL: MIC Enterococcus avium (GC 4558) ([1]; Enterococcus avium (GC 4558)) | MIC Enterococcus avium (GC 4558) [1, 5]
32 µg/mL: MIC Escherichia coli (GC 4560) [4]
